In patent US7759071B2, “Determination of apoptotic products in tumor patients undergoing therapy” (Roche Diagnostics, priority 1998, dated 2010):

Tests used:
[1] = tested on: metastasising pancreatic carcinoma; test: Clinical course of the patient during chemotherapy; assay type: in vivo; settings: one patient, FIG. 9
Excerpt: The effectiveness of tumour therapy can be determined by means of the remission rate on the basis of image generating processes (X-ray, computer tomography). By definition a complete remission is understood as the complete disappearance of the tumour for at least eight weeks and partial remission means a regression of the tumour manifestations by more than 50% with regard to their volume; no change reflects the state between a 50% decrease and a 25% increase of the tumour mass; progression denotes a progression of more than 25% (UICC criteria).

[2] = tested on: metastasising pancreatic carcinoma; test: Nucleosome concentration in serum (Cell Death Detection plus ELISA) of a patient during chemotherapy; assay type: in vivo; settings: one patient, FIG. 9; for nucleosome concentration in the serum after start of new therapy scheme: combination folic acid 300 mg/m^2 and 5-fluorouracil 500 mg/m^2 on each of days 1 to 5, only a partial decrease afterwards; for nucleosome concentration in the serum at the beginning of a cycle: combination Gemcitabine 1000 mg/m^2 (day 1, 8, 15) and Cisplatin 50 mg/m^2 (day 1, 15), then decreased slowly
Procedure: The Cell Death Detection^plus ELISA (Boehringer Mannheim, Cat. No. 1 774 425) is based on the quantitative sandwich enzyme immunoassay principle. Two monoclonal mouse antibodies are used which are directed against DNA and histones. The test can be carried out with cytoplasmic lysates, culture supernatants, plasma, serum and other body fluids and allows a specific detection of mononucleosomes and oligonucleosomes. The description given here applies to measurements in liquid media:
A 20 μl aliquot of the material to be tested is pipetted into a well of a streptavidin-coated microtitre plate (MTP). 80 μl of an immunoreagent composed of biotinylated anti-histone antibodies, peroxidase-labelled anti-DNA antibodies and incubation buffer (1% BSA, 0.5% Tween, 1 mM EDTA in PBS) is added, covered with an adhesive foil and incubated for 2 hours on a MTP shaker (500 rpm). During this incubation period the anti-histone antibody reacts with the histone component of the nucleosomes and immobilizes the complex via the biotin on the streptavidin-coated microtitre plate. In addition the anti-DNA antibody binds to the DNA component of the nucleosomes. In this process ds as well as ss DNA is recognized. After removing the antibody that is still unbound by washing three times with 300-400 μl incubation buffer in each case, the immobilized complexes are incubated with 100 μl ABTS (2,2′-azino-di(3-ethyl-benzthiazoline sulfonate), the MTP is sealed with an adhesive foil and shaken at 250 rpm. The substrate reacts with the peroxidase label of the anti-DNA antibody and causes a colour change that is proportional to these antibodies. After an adequate colour development period it is photometrically quantified at d=405 nm against the substrate solution as a blank (reference wavelength d=492 nm).
Therefore absolute concentration data are not used and a scale of so-called AUs (arbitrary units) is introduced. 1000 AU equates with the highest standard level (2500 mA after 30 min); the scale is linear. This therefore takes into account the lack of knowledge about the ratio of mononucleosomes to oligonucleosomes and the resulting variability concerning the amount of binding sites of the antibodies while at the same time increasing the comparability between the tests.
After thawing attention must be paid to adjustment to room temperature and careful homogenization of the sample material. The serum samples are diluted 1:4 with incubation buffer (20 μl serum, 60 μl incubation buffer) and subsequently used in the test.
The nucleosome content was measured in patients under chemotherapy before therapy and on the second and fourth day and one week after administration of the first dose and in addition weekly or before the start of the next treatment cycle.

[3] = combination folic acid and 5-fluorouracil, continuous increase of CEA
[4] = combination Gemcitabine and Cisplatin

Compound	clinical course under therapy [1, 3]	nucleosome concentration in the serum after start of new therapy scheme [2]	clinical course under therapy [1, 4]	nucleosome concentration in the serum at the beginning of a cycle [2]
O=c1[nH]cc(F)c(=O)[nH]1 [5-fluorouracil]	progressive course	rapid increase		
N.N.[Cl][Pt][Cl] [Cisplatin]			clinical progressive deterioration	increased rapidly
Nc1ccn([C@@H]2O[C@H](CO)[C@@H](O)C2(F)F)c(=O)n1 [Gemcitabine]			clinical progressive deterioration	increased rapidly
Nc1nc2ncc(CNc3ccc(C(=O)N[C@@H](CCC(=O)O)C(=O)O)cc3)nc2c(=O)[nH]1 [folic acid]	progressive course	rapid increase		
